From patent publication US8759519B2, “Mono-hydrochloric salts of an inhibitor of histone deacetylase” (Janssen Pharmaceutica NV, priority 2007, dated 2014)
Counter-ions that a name gives are not always drawn. Like-named read-outs stand apart in the source and are kept apart here.

Assays:
Assay type in all cases: physicochemical
[1] = Adsorption/desorption of water (dynamic vapor sorption); details: 25° C., hydrochloride
Protocol: The ADS/DES data were obtained using a SMS dynamic vapor sorption model DVS-1 and the weight change was recorded with tespect to the atmospheric humidity at 25° C. The weight of the samples was about 17 mg of Form I and 24 mg of Form II. The samples were dried for 60 min under dry nitrogen. The equilibrium was lower or equal to 0.01%/min. for minimal 15 min and maximal 60 min. The data interval was 0.05% or 2.0 min.
Relative Humidity (%) measurement points were:
The adsorption and desorption of water at 25° C. at different conditions of relative humidity was investigated on 17 mg Form I.
The weight change as a function of relative humidity was registered.
The adsorption and desorption of water at 25° C. at different conditions of relative humidity was investigated on about 24 mg Form II

[2] = Crystallographic stability after storage in open conditions (TGA, DSC, XRPD, IR); parameters: key to XRD / IR: ~Ref: identical with reference; Cryst.: crystalline; details: for IR / XRD: Table E
Protocol: The stability of the crystal structure of Form I was studied after storage of the compound in open conditions for a period of six weeks at room temperature (RT) under <5%, 56% and 75% relative humidity (RH), 50° C. and 40° C./75% RH.
The samples are analyzed with thermogravimetry (TGA), differential scanning calorimetry (DSC), X-ray powder diffraction (XRPD) and infrared spectroscopy (IR).
The stability of the crystal structure of Form II was studied after storage of the compound in open conditions for a period of six weeks at room temperature (RT) under <5%, 56% and 75% relative humidity (RH), 50° C. and 40° C./75% RH.
The samples were analyzed with thermogravimetry (TGA), differential scanning calorimetry (DSC), X-ray powder diffraction (XRPD) and infrared spectroscopy (IR).

[3] = Aqueous solubility in solvents with different pH; details: 20° C., read-out: Solubility (mg/ml solution)
Protocol: Aqueous solubilities of Form I were measured in solvents with different pH. An excess of the solute was equilibrated with the solvent at 20° C. for 24 hours. After removing the undissolved compound, the concentration in solution was determined using UV spectrometry.

[4] = Chemical stability after storage in open conditions (HPLC, visual inspection); details: for Appearance / HPLC Sum of impurities: hydrochloride
Protocol: Form I was stored in different open conditions for periods of 1, 4 and 8 weeks.
These conditions are 40° C./75% RH, 50° C., RT/<5% RH, RT/56% RH, RT/75% RH and 0.3 da ICH light.
The compounds were analyzed after storage by HPLC and by visual inspection.
Form II was stored in different open conditions for periods of 1, 4 and 8 weeks. These conditions were 40° C./75% RH, 50° C., RT/<5% RH, RT/56% RH, RT/75% RH and 0.3 da ICH light.

[5] = 0 days (reference), hydrochloride
[6] = six weeks open, 40° C./75% RH, hydrochloride
[7] = six weeks open, 50° C., hydrochloride
[8] = six weeks open, RT/56% RH, hydrochloride
[9] = six weeks open, RT/75% RH, hydrochloride
[10] = six weeks open, RT/<5% RH, hydrochloride

hygroscopic behavior ([1]; adsorption/desorption test): no hygroscopic behavior | water adsorbed at high relative humidity ([1]; high relative humidity): up to 0.6% | crystallinity during the adsorption/desorption test [1]: remained crystalline | DSC Exotherm Max (° C.) ([2]; 0 days (reference)): 216.8 °C | TGA <200° C. ([2]; 0 days (reference)): 0.9% | App (appearance) [2, 5]: Beige-gray | TGA <100° C. [2, 5]: 0.4% | IR ([2]; six weeks open, 40° C./75% RH): ~Ref | XRD ([2]; six weeks open, 40° C./75% RH): ~Ref | IR ([2]; six weeks open, 50° C.): ~Ref | XRD ([2]; six weeks open, 50° C.): ~Ref | IR ([2]; six weeks open, RT/56% RH): ~Ref | XRD ([2]; six weeks open, RT/56% RH): ~Ref | IR ([2]; six weeks open, RT/75% RH): ~Ref | XRD ([2]; six weeks open, RT/75% RH): ~Ref | IR ([2]; six weeks open, RT/<5% RH): ~Ref | XRD ([2]; six weeks open, RT/<5% RH): ~Ref | crystallographic stability (conclusion) ([2]; six weeks open storage under the different conditions, hydrochloride): crystallographically stable | DSC Exotherm Max (° C.) ([2]; six weeks open, 40° C./75% RH): 216.9 °C | TGA <200° C. ([2]; six weeks open, 40° C./75% RH): 0.3% | App (appearance) [2, 6]: Beige-gray | TGA <100° C. [2, 6]: 1% | DSC Exotherm Max (° C.) ([2]; six weeks open, 50° C.): 216.9 °C | TGA <200° C. ([2]; six weeks open, 50° C.): 0.3% | App (appearance) [2, 7]: Beige-gray | TGA <100° C. [2, 7]: 0.5% | DSC Exotherm Max (° C.) ([2]; six weeks open, RT/56% RH): 216.9 °C | TGA <200° C. ([2]; six weeks open, RT/56% RH): 0.4% | App (appearance) [2, 8]: Beige-gray | TGA <100° C. [2, 8]: 0.5% | DSC Exotherm Max (° C.) ([2]; six weeks open, RT/75% RH): 217.0 °C | TGA <200° C. ([2]; six weeks open, RT/75% RH): 0.4% | App (appearance) [2, 9]: Beige-gray | TGA <100° C. [2, 9]: 0.9% | DSC Exotherm Max (° C.) ([2]; six weeks open, RT/<5% RH): 216.7 °C | TGA <200° C. ([2]; six weeks open, RT/<5% RH): 0.5% | App (appearance) [2, 10]: Beige-gray | TGA <100° C. [2, 10]: 0.8% | solubility thermodynamic at 24 h ([3]; aqueous buffer, 0.001N HCl (pH 2.9)): 1.5 mg/mL | solubility thermodynamic at 24 h ([3]; aqueous buffer, 0.01N HCl (pH 2.0)): 1.4 mg/mL | solubility thermodynamic at 24 h ([3]; aqueous buffer, Buffer pH 2 (citric acid/NaOH/HCl) (pH 2.0)): 0.95 mg/mL | solubility thermodynamic at 24 h ([3]; aqueous buffer, Buffer pH 4 (citric acid/HCl/NaOH) (pH 3.9)): 1.2 mg/mL | solubility thermodynamic at 24 h ([3]; aqueous buffer, Buffer pH 6 (citric acid/NaOH) (pH 6.0)): 1.5 mg/mL | solubility thermodynamic at 24 h ([3]; aqueous buffer, Buffer pH 8 (boric acid/HCl/NaOH) (pH 7.8)): 1.3 mg/mL | solubility thermodynamic at 24 h ([3]; aqueous buffer, Buffer pH 10 (boric acid/KCl/NaOH) (pH 9.8)): 1.3 mg/mL | solubility thermodynamic at 24 h ([3]; water (pH 4.5)): 1.4 mg/mL | Appearance ([4]; 0.3 da ICH light (1 week)): beige-gray | HPLC Sum of impurities ([4]; 0.3 da ICH light (1 week)): 4.58% | Appearance ([4]; 40° C./75% RH, 1 week): beige-gray | HPLC Sum of impurities ([4]; 40° C./75% RH, 1 week): 3.31% | Appearance ([4]; 40° C./75% RH, 4 weeks): beige-gray | HPLC Sum of impurities ([4]; 40° C./75% RH, 4 weeks): 3.13% | Appearance ([4]; 40° C./75% RH, 8 weeks): beige-gray | HPLC Sum of impurities ([4]; 40° C./75% RH, 8 weeks): 3.59% | Appearance ([4]; 50° C., 1 week): beige-gray | HPLC Sum of impurities ([4]; 50° C., 1 week): 3.19% | Appearance ([4]; 50° C., 4 weeks): beige-gray | HPLC Sum of impurities ([4]; 50° C., 4 weeks): 3.2% | Appearance ([4]; 50° C., 8 weeks): beige-gray | HPLC Sum of impurities ([4]; 50° C., 8 weeks): 3.16% | Appearance ([4]; RT/56% RH, 4 weeks): beige-gray | HPLC Sum of impurities ([4]; RT/56% RH, 4 weeks): 3.27% | Appearance ([4]; RT/56% RH, 8 weeks): beige-gray | HPLC Sum of impurities ([4]; RT/56% RH, 8 weeks): 3.15% | Appearance ([4]; RT/75% RH, 4 weeks): beige-gray | HPLC Sum of impurities ([4]; RT/75% RH, 4 weeks): 3.43% | Appearance ([4]; RT/75% RH, 8 weeks): beige-gray | HPLC Sum of impurities ([4]; RT/75% RH, 8 weeks): 3.39% | Appearance ([4]; RT/<5% RH, 4 weeks): beige-gray | HPLC Sum of impurities ([4]; RT/<5% RH, 4 weeks): 3.42% | Appearance ([4]; RT/<5% RH, 8 weeks): beige-gray | HPLC Sum of impurities ([4]; RT/<5% RH, 8 weeks): 3.16% | Appearance ([4]; Reference (1 week)): beige-gray | HPLC Sum of impurities ([4]; Reference (1 week)): 3.14% | sensitivity towards light (sum of impurities) ([4]; storage in 0.3 da ICH light conditions): showed a sensitivity towards light
SMILES: Cn1cc(CNCC2CCN(c3ncc(C(=O)NO)cn3)CC2)c2ccccc21 [Form I, N-hydroxy-2-[4-[[[(1-methyl-1H-indol-3-yl)methyl]amino]methyl]-1-piperidinyl]-5-pyrimidinecarboxamide hydrochloride]
